Here are results for 35 compounds from patent US7091220B2, “Substituted indole Mannich bases” (Gruenenthal GmbH, priority 1999, dated 2006).

T1 sequence (P31652 whole entry): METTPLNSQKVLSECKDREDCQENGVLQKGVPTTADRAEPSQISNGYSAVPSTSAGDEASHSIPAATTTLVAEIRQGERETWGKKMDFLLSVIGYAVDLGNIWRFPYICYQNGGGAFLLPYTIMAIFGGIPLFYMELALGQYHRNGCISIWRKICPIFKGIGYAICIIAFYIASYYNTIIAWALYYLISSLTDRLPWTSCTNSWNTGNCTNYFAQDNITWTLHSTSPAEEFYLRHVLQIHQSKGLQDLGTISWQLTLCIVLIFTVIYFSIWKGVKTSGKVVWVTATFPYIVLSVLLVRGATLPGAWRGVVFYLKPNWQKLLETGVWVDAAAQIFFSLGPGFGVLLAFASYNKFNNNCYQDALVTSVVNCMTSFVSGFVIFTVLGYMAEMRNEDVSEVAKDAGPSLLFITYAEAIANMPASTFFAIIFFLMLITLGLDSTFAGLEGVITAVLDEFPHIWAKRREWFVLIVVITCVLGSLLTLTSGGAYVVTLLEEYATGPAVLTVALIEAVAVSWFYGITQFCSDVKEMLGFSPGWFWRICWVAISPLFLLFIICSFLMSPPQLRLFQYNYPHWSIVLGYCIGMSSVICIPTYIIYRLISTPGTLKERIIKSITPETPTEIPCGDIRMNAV

In the first assay the test system is α2-subtype of the human α-adrenergic receptor. The assay can be described thus: SPA test, affinity for the α2-subtype of the human α-adrenergic receptor.
Conditions: not given
Format: binding. How it is done:
Wide-ranging testing of the indole Mannich bases according to the invention for their activity was carried out by the conventional high throughput screening methods, such as are described in John P. Devlin, High Throughput Screening, 1997, Marcel Dekker Inc. They are introduced here as a reference and are therefore part of the disclosure.
The action of the indole Mannich bases according to the invention is determined in particular by the affinity for the N-methyl-D-aspartate (NMDA) receptor family, for (α-adrenergic receptors and opioid receptors.
The compounds of the general formula 1 according to the invention investigated are suitable as ligands for the α2-subtype of the human α-adrenergic receptor, which is of importance for pain sensation.
The affinity of the compounds according to the invention for this α2-subtype of the α-adrenergic receptor has been determined with the aid of the SPA test such as is described in John P. Devlin, High Throughput Screening, Marcel Dekker Inc. 1997, pages 307 to 316. This literature is introduced herewith as a reference and is therefore part of the disclosure. The affinities of the compounds according to the invention were in each case determined at a concentration of 10 μM.
As to `CN(C)C(c1cccc(Br)c1)c1cn(C)c2ccccc12` (centres unmarked) [Example 60, [(3-Bromo-phenyl)-(1-methyl-1H-indol-3-yl)-methyl]-dimethyl-amine], the “% Inhibition of α2 (humans), 10 μM” value turned out to be 66%. On the same count and under the same terms, the same measure for “5-Benzyloxy-3-(phenyl-pyrrolidin-yl-methyl)-1H-indole [Example 50]”: 51%.

Another assay has as its target T1, 5-HT transporter (Rattus norvegicus, UniProt P31652).
T1 construct: these vesicular particles were isolated from the pons and medulla oblongata region of the male rat brain; from tissue; host or cells: rat brain synaptosomes (P2 fraction) from pons and medulla oblongata of male rats
The assay can be described thus: Inhibition of serotonin re-uptake (5-HT uptake inhibition) in rat brain synaptosomes. Format: biochemical. Particulars: rat brain synaptosomes (P2 fraction, pons and medulla oblongata); means from 2 parallel experiments; concentration not given. How it is done:
The investigations of the inhibition of serotonin re-uptake (5-HT uptake inhibition) were carried out by the methods such as are described in M. Ch. Frink, H. -H. -Hennies, W. Englberger, M. Haurand and B. Wilffert, Arzneim.-Forsch./Drug. Res. 46 (III), 11, 1996, pages 1029–1036. They are introduced herewith as reference and thus form part of the disclosure.
To carry out these investigations, synaptosomes were freshly isolated from rat brain areas. In each case the so-called “P2” fraction was used, which was prepared according to the instructions in E. G. Gray and V. P. Whittaker, J. Anat. 76, pages 79–88, 1962. This literature is introduced herewith as reference and thus forms part of the disclosure. For determination of the 5-HT uptake, these vesicular particles were isolated from the pons and medulla oblongata region of the male rat brain.
The following characteristic data were determined for the 5-HT transporter: • 5-HT uptake: Km=0.084±0.011 μM • Vmax: 38.13±4.52 pmol/min/mg protein.
The results of the investigations are in each case stated as means from 2 parallel experiments.
On to `COc1cccc(C(c2c[nH]c3cccc([N+](=O)[O-])c23)N(C)C)c1OC` (centres unmarked) [Example 75, [(2,3-Dimethoxy-phenyl)-(4-nitro-1H-indol-3-yl)-methyl]-dimethylamine], for which the “Inhibition of 5HT uptake in %” value was 39%. In the case of `CCn1c(-c2ccccc2)c(C(c2cccc(Oc3ccccc3)c2)N(C)C)c2ccccc21` (centres unmarked) [Example 96, [(1-Ethyl-2-phenyl-1H-indol-3-yl)-(3-phenoxy-phenyl)-methyl]-dimethylamine], the “Inhibition of 5HT uptake in %” value is 55%. In the case of `Cc1[nH]c2ccccc2c1C(c1ccc(F)cc1Cl)N(C)C` (centres unmarked) [Example 73, [(2-Chloro-4-fluoro-phenyl)-(2-methyl-1H-indol-3-yl)-methyl]-dimethyl-amine], the “Inhibition of 5HT uptake in %” value worked out at 41%. For the compound `Cc1ccc(C(c2c[nH]c3ccc(Cl)cc23)N(C)C)cc1` (centres unmarked) [Example 94, [(5-Chloro-1H-indol-3-yl)-p-tolyl-methyl]-dimethyl-amine], the “Inhibition of 5HT uptake in %” value worked out at 64%. For the compound `Cc1cccc2[nH]cc(C(c3ccc(F)cc3)N(C)C)c12` (centres unmarked) [Example 86, [(4-Fluoro-phenyl)-(4-methyl-1H-indol-3-yl)-methyl]-dimethyl-amine], the “Inhibition of 5HT uptake in %” value is 41%. In the case of `COc1ccc(C(c2cn(C)c3ccccc23)N(C)C)cc1OC` (centres unmarked) [Example 82, [(3,4-Dimethoxy-phenyl)-(1-methyl-1H-indol-3-yl)-methyl]-dimethyl-amine], the “Inhibition of 5HT uptake in %” value turned out to be 42%. Consider `COc1ccccc1C(c1c(C)[nH]c2ccccc12)N(C)C` (centres unmarked) [Example 44, [(2-Methoxyphenyl)-(2-methyl-1H-indol-3-yl)-methyl]-dimethylamine], for which the “Inhibition of 5HT uptake in %” value stood at 48%. Take `COc1cccc(C(c2c[nH]c3c2CC=C(C(=O)O)C3)N(C)C)c1OC` (centres unmarked) [Example 76, 3-[(2,3-Dimethoxy-phenyl)-dimethylamino-methyl]-4,7-dihydro-1H-indole-6-carboxylic Acid]: the “Inhibition of 5HT uptake in %” value is 42%. On the same count and under the same terms, the result for `Cc1[nH]c2ccccc2c1C(c1cccc(Oc2ccccc2)c1)N(C)C` (centres unmarked) [Example 95, Dimethyl-[(2-methyl-1H-indol-3-yl)-(3-phenoxy-phenyl)-methyl]-amine] reads 70%; that for `COc1cccc(C(c2c(C(=O)O)[nH]c3ccc(O)cc23)N(C)C)c1OC` (centres unmarked) [Example 77, 3-[(2,3-Dimethoxy-phenyl)-dimethylamino-methyl]-5-hydroxy-1H-indole-2-carboxylic Acid], 38%. Consider `COc1ccc(C(c2c(-c3ccc(F)cc3)[nH]c3ccccc23)N(C)C)cc1OC` (centres unmarked) [Example 83, [(3,4-Dimethoxy-phenyl)-[2-(4-fluoro-phenyl)-1H-indol-3-yl]-methyl]-dimethylamine], for which the “Inhibition of 5HT uptake in %” value is 39%.

`COc1ccc(C(c2c(-c3ccc(Cl)cc3)[nH]c3ccccc23)N(C)C)cc1OC` (centres unmarked) [Example 79, [[2-(4-Chloro-phenyl)-1H-indol-3-yl]-(3,4-dimethoxy-phenyl)-methyl]-dimethyl-amine]: the “Inhibition of 5HT uptake in %” value worked out at 50%. For the compound `CCc1cccc2c(C(c3cccc(Oc4ccccc4)c3)N(C)C)c[nH]c12` (centres unmarked) [Example 97, [(7-Ethyl-1H-indol-3-yl)-(3-phenoxy-phenyl)-methyl]-dimethyl-amine], the “Inhibition of 5HT uptake in %” value is reported as 79%.

`Cc1[nH]c2ccccc2c1C(c1ccc(C(F)(F)F)cc1)N(C)C` (centres unmarked) [Example 103, Dimethyl-[(2-methyl-1H-indol-3-yl)-(4-trifluoromethyl-phenyl)-methyl]-amine]: the “Inhibition of 5HT uptake in %” value turned out to be 74%. `Cc1ccc(C(c2c(C)[nH]c3ccccc23)N(C)C)cc1` (centres unmarked) [Example 93, Dimethyl-[(2-methyl-1H-indol-3-yl)-p-tolyl-methyl]-amine]: the “Inhibition of 5HT uptake in %” value is given as 78%. As to `Cc1[nH]c2ccccc2c1C(c1c(F)cccc1Cl)N(C)C` (centres unmarked) [Example 74, [(2-Chloro-6-fluoro-phenyl)-(2-methyl-1H-indol-3-yl)-methyl]-dimethyl-amine], the “Inhibition of 5HT uptake in %” value turned out to be 72%. With `Cc1cccc2[nH]cc(C(c3cccc(Oc4ccccc4)c3)N(C)C)c12` (centres unmarked) [Example 101, Dimethyl-[(4-methyl-1H-indol-3-yl)-(3-phenoxy-phenyl)-methyl]-amine], the “Inhibition of 5HT uptake in %” value worked out at 41%.

For `CCc1cccc2c(C(c3ccccc3C)N(C)C)c[nH]c12` (centres unmarked) [Example 89, [(7-Ethyl-1H-indol-3-yl)-o-tolyl-methyl]-dimethyl-amine], the “Inhibition of 5HT uptake in %” value turned out to be 45%. The same measure, in the same setting: the same measure for `COc1ccc(C(c2c(C)[nH]c3ccccc23)N(C)C)cc1OC` (centres unmarked) [Example 78, [(3,4-Dimethoxy-phenyl)-(2-methyl-1H-indol-3-yl)-methyl]-dimethyl-amine]: 73%; for `CN(C)C(c1cccc(Oc2ccccc2)c1)c1c(-c2ccc(F)cc2)[nH]c2ccccc12` (centres unmarked) [Example 99, [[2-(4-Fluoro-phenyl)-1H-indol-3-yl]-(3-phenoxy-phenyl)-methyl]-dimethyl-amine]: 42%. Turning to `Cc1ccccc1C(c1cn(C)c2ccccc12)N(C)C` (centres unmarked) [Example 90, Dimethyl-[(1-methyl-1H-indol-3-yl)-o-tolyl-methyl]-amine], the “Inhibition of 5HT uptake in %” value stood at 44%. Regarding `CN(C)C(c1ccccc1C(F)(F)F)c1c[nH]c2ccc(Cl)cc12` (centres unmarked) [Example 102, [(5-Chloro-1H-indol-3-yl)-(2-trifluoromethyl-phenyl)-methyl]-dimethyl-amine], the “Inhibition of 5HT uptake in %” value was found to be 42%. The same measure, in the same setting: the same measure for `NC(c1cccc(Oc2ccccc2)c1)c1c(-c2ccc(F)c(Cl)c2)[nH]c2ccccc12` (centres unmarked) [Example 100, [[2-(3-Chloro-4-fluoro-phenyl)-1H-indol-3-yl]-(3-phenoxy-phenyl)-methyl]-amine]: 48%; for `Cc1ccccc1C(c1c(C)[nH]c2ccccc12)N(C)C` (centres unmarked) [Example 88, Dimethyl-[(2-methyl-1H-indol-3-yl)-o-tolyl-methyl]-amine]: 62%; for `CCn1c(-c2ccccc2)c(C(c2ccc(OC)c(OC)c2)N(C)C)c2ccccc21` (centres unmarked) [Example 80, [(3,4-Dimethoxy-phenyl)-(1-ethyl-2-phenyl-1H-indol-3-yl)-methyl]-dimethyl-amine]: 42%. For the compound `CN(C)C(c1cccc(Oc2ccccc2)c1)c1cn(C)c2ccccc12` (centres unmarked) [Example 98, Dimethyl-[(1-methyl-1H-indol-3-yl)-(3-phenoxy-phenyl)-methyl]-amine], the “Inhibition of 5HT uptake in %” value came out at 66%. As for `COc1ccc(C(c2c(-c3ccc(F)c(Cl)c3)[nH]c3ccccc23)N(C)C)cc1OC` (centres unmarked) [Example 84, [[2-(3-Chloro-4-fluoro-phenyl)-1H-indol-3-yl]-(3,4-dimethoxy-phenyl)-methyl]-dimethyl-amine], the “Inhibition of 5HT uptake in %” value is 44%. Same read-out and setting: the result for `CCc1cccc2c(C(c3ccc(OC)c(OC)c3)N(C)C)c[nH]c12` (centres unmarked) [Example 81, [(3,4-Dimethoxy-phenyl)-(7-ethyl-1H-indol-3-yl)-methyl]-dimethyl-amine] reads 68%; that for `CN(C)C(c1ccccc1F)c1c[nH]c2ccc(Cl)cc12` (centres unmarked) [Example 85, [(5-Chloro-1H-indol-3-yl)-(2-fluoro-phenyl)-methyl]-dimethyl-amine], 44%; that for `Cc1cccc(C(c2c[nH]c3ccc(Cl)cc23)N(C)C)c1` (centres unmarked) [Example 92, [(5-Chloro-1H-indol-3-yl)-m-tolyl-methyl]-dimethyl-amine], 46%. Turning to `CCn1c(-c2ccccc2)c(C(c2ccc(C(C)(C)C)cc2)N(C)C)c2ccccc21` (centres unmarked) [Example 72, [(4-tert-Butyl-phenyl)-(1-ethyl-2-phenyl-1H-indol-3-yl)-methyl]-dimethyl-amine], the “Inhibition of 5HT uptake in %” value was determined as 60%. Take `Cc1ccccc1C(c1c[nH]c2ccc(Cl)cc12)N(C)C` (centres unmarked) [Example 91, [(5-Chloro-1H-indol-3-yl)-o-tolyl-methyl]-dimethyl-amine]: the “Inhibition of 5HT uptake in %” value turned out to be 49%. On to `CCc1cccc2c(C(c3ccccc3OC)N(C)C)c[nH]c12` (centres unmarked) [Example 87, [(7-Ethyl-1H-indol-3-yl)-(2-methoxy-phenyl)-methyl]-dimethyl-amine], for which the “Inhibition of 5HT uptake in %” value was determined as 50%.
